# From PubChem BioAssay AID2060614 (Molecular Pharmacology Branch, DTP, NCI, 2025)
# Several values for one entry are separate records, joined by “and”; a condition that tells them apart may be missing. Identical values can stand only once.
# System: 598228-144-R-J1-PDC complex spheroids, viability
# Assay: Anticancer human tumor 598228-144-R-J1-PDC patient-derived serous endometrial adenocarcinoma cell line growth inhibition [CLK]
# Settings: for viability, T/C: stronger effect = lower value
# Summary of the method: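 Patient-derived tumor cells grown as complex spheroids with HUVEC endothelial cells and mesenchymal stem cells, treated with drug combinations. Concentrations descend in half-log steps from near clinical Cmax, or from 10 microM if Cmax unknown.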
# [1] = curve of first compound, second compound 0.0316 µM
# [2] = curve of first compound, second compound 0.1 µM
# [3] = curve of first compound, second compound 0.316 µM
# [4] = curve of first compound, second compound 1 µM
# [5] = curve of first compound, second compound 3.16 µM
# [6] = curve of first compound, second compound 10 µM
# [7] = second compound 0.0316 µM, first compound 0.000949 µM
# [8] = second compound 0.0316 µM, first compound 0.003 µM
# [9] = second compound 0.0316 µM, first compound 0.00949 µM
# [10] = second compound 0.0316 µM, first compound 0.03 µM
# [11] = second compound 0.0316 µM, first compound 0.0949 µM
# [12] = second compound 0.0316 µM, first compound 0.3 µM
# [13] = second compound 0.1 µM, first compound 0.000949 µM
# [14] = second compound 0.1 µM, first compound 0.003 µM
# [15] = second compound 0.1 µM, first compound 0.00949 µM
# [16] = second compound 0.1 µM, first compound 0.03 µM
# [17] = second compound 0.1 µM, first compound 0.0949 µM
# [18] = second compound 0.1 µM, first compound 0.3 µM
# [19] = second compound 0.316 µM, first compound 0.000949 µM
# [20] = second compound 0.316 µM, first compound 0.003 µM
# [21] = second compound 0.316 µM, first compound 0.00949 µM
# [22] = second compound 0.316 µM, first compound 0.03 µM
# [23] = second compound 0.316 µM, first compound 0.0949 µM
# [24] = second compound 0.316 µM, first compound 0.3 µM
# [25] = second compound 1 µM, first compound 0.000949 µM
# [26] = second compound 1 µM, first compound 0.003 µM
# [27] = second compound 1 µM, first compound 0.00949 µM
# [28] = second compound 1 µM, first compound 0.03 µM
# [29] = second compound 1 µM, first compound 0.0949 µM
# [30] = second compound 1 µM, first compound 0.3 µM
# [31] = second compound 3.16 µM, first compound 0.000949 µM
# [32] = second compound 3.16 µM, first compound 0.003 µM
# [33] = second compound 3.16 µM, first compound 0.00949 µM
# [34] = second compound 3.16 µM, first compound 0.03 µM
# [35] = second compound 3.16 µM, first compound 0.0949 µM
# [36] = second compound 3.16 µM, first compound 0.3 µM
# [37] = second compound 10 µM, first compound 0.000949 µM
# [38] = second compound 10 µM, first compound 0.003 µM
# [39] = second compound 10 µM, first compound 0.00949 µM
# [40] = second compound 10 µM, first compound 0.03 µM
# [41] = second compound 10 µM, first compound 0.0949 µM
# [42] = second compound 10 µM, first compound 0.3 µM
# 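Note: spheroids exposed to compounds for seven days before readout.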
# 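Throughout, for viability, T/C: 100% = DMSO vehicle control wells.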
compound,measurement,setting,value
CC(C)CC(NC(=O)C(Cc1ccccc1)NC(=O)c1cnccn1)B(O)O (stereo not drawn) + CN1CCN(c2cc(C(=O)Nc3cc4cc(-c5cnn(C)c5)ccc4cn3)ccn2)CC1,IC50,[1],4.12 nM
same,IC50,[2],2.54 nM
same,IC50,[3],< 0.949 nM
same,IC50,[4],< 0.949 nM
same,IC50,[5],< 0.949 nM
same,IC50,[6],< 0.949 nM
same,"viability, T/C",[7],124%
same,"viability, T/C",[8],68.6%
same,"viability, T/C",[9],0.89%
same,"viability, T/C",[10],0.39%
same,"viability, T/C",[11],0.34%
same,"viability, T/C",[12],0.29%
same,"viability, T/C",[13],137%
same,"viability, T/C",[14],35.3%
same,"viability, T/C",[15],0.57%
same,"viability, T/C",[16],0.37%
same,"viability, T/C",[17],0.35%
same,"viability, T/C",[18],2.83%
same,"viability, T/C",[19],19.9%
same,"viability, T/C",[20],2.9%
same,"viability, T/C",[21],0.32%
same,"viability, T/C",[22],0.26%
same,"viability, T/C",[23],0.88%
same,"viability, T/C",[24],6.75%
same,"viability, T/C",[25],0.79%
same,"viability, T/C",[26],0.61%
same,"viability, T/C",[27],0.36%
same,"viability, T/C",[28],0.23%
same,"viability, T/C",[29],1.86%
same,"viability, T/C",[30],4.83%
same,"viability, T/C",[31],1.18%
same,"viability, T/C",[32],1.87%
same,"viability, T/C",[33],0.3%
same,"viability, T/C",[34],0.21%
same,"viability, T/C",[35],1.26%
same,"viability, T/C",[36],2.5%
same,"viability, T/C",[37],0.91%
same,"viability, T/C",[38],2.49%
same,"viability, T/C",[39],0.22%
same,"viability, T/C",[40],0.2%
same,"viability, T/C",[41],3.91%
same,"viability, T/C",[42],3.86%
C=CC(=O)Nc1cc(Nc2nccc(-c3cn(C)c4ccccc34)n2)c(OC)cc1N(C)CCN(C)C + CN1CCN(c2cc(C(=O)Nc3cc4cc(-c5cnn(C)c5)ccc4cn3)ccn2)CC1,IC50,[1],> 300 nM
same,IC50,[2],> 300 nM
same,IC50,[3],< 0.949 nM
same,IC50,[4],< 0.949 nM
same,IC50,[5],< 0.949 nM
same,IC50,[6],< 0.949 nM
same,"viability, T/C",[7],133%
same,"viability, T/C",[8],108%
same,"viability, T/C",[9],114%
same,"viability, T/C",[10],117%
same,"viability, T/C",[11],108%
same,"viability, T/C",[12],98.8%
same,"viability, T/C",[13],127%
same,"viability, T/C",[14],126%
same,"viability, T/C",[15],116%
same,"viability, T/C",[16],112%
same,"viability, T/C",[17],103%
same,"viability, T/C",[18],91.9%
same,"viability, T/C",[19],19.6%
same,"viability, T/C",[20],17%
same,"viability, T/C",[21],17.1%
same,"viability, T/C",[22],15.4%
same,"viability, T/C",[23],12.5%
same,"viability, T/C",[24],14.6%
same,"viability, T/C",[25],1.75%
same,"viability, T/C",[26],2.14%
same,"viability, T/C",[27],6.03%
same,"viability, T/C",[28],1.51%
same,"viability, T/C",[29],1.29%
same,"viability, T/C",[30],3.97%
same,"viability, T/C",[31],1.65%
same,"viability, T/C",[32],1.56%
same,"viability, T/C",[33],2.1%
same,"viability, T/C",[34],1.72%
same,"viability, T/C",[35],2.58%
same,"viability, T/C",[36],2.49%
same,"viability, T/C",[37],1.18%
same,"viability, T/C",[38],1.02%
same,"viability, T/C",[39],1.77%
same,"viability, T/C",[40],1.25%
same,"viability, T/C",[41],5.91%
same,"viability, T/C",[42],2.52%
CC1(C)CCC(CN2CCN(c3ccc(C(=O)NS(=O)(=O)c4ccc(NCC5CCOCC5)c([N+](=O)[O-])c4)c(Oc4cnc5[nH]ccc5c4)c3)CC2)=C(c2ccc(Cl)cc2)C1,"viability, T/C",compound 0.0316 µM,107% and 88.7%
same,"viability, T/C",compound 0.1 µM,89.8% and 91.9%
same,"viability, T/C",compound 0.316 µM,89.7% and 89.9%
same,"viability, T/C",compound 1 µM,104% and 105%
same,"viability, T/C",compound 3.16 µM,101% and 94.9%
same,"viability, T/C",compound 10 µM,32.4% and 26.7%
same,IC50,curve of compound,7360 nM and 6720 nM
Nc1ccn(C2OC(CO)C(O)C2(F)F)c(=O)n1 (stereo not drawn),"viability, T/C",compound 0.0316 µM,32.7% and 37.1%
same,"viability, T/C",compound 0.1 µM,24.5% and 31.8%
same,"viability, T/C",compound 0.316 µM,20.6% and 26.5%
same,"viability, T/C",compound 1 µM,24.4% and 28%
same,"viability, T/C",compound 3.16 µM,21.4% and 36.8%
same,"viability, T/C",compound 10 µM,22% and 27.7%
same,IC50,curve of compound,< 31.6 nM
